Tests used:
[1] = DLS size and polydispersity of hEPO mRNA lipid nanoparticles; format: physicochemical; details: hEPO mRNA LNP, Cationic Lipid:DMG-PEG2000:Cholesterol:DOPE=40:1.5:28.5:30, N/P ratio 4, Process A
Procedure: The lipid nanoparticles in the examples of the present invention were formulated using Process A of WO 2018/089801 (see, e.g., Example 1 and FIG. 1 of WO 2018/089801). Process A (“A”) relates to a conventional method of encapsulating mRNA by mixing mRNA with a mixture of lipids, without first pre-forming the lipids into lipid nanoparticles. In an exemplary process, an ethanol lipid solution and an aqueous buffered solution of mRNA were prepared separately. A solution of mixture of lipids (cationic lipid, helper lipids, zwitterionic lipids, PEG lipids etc.) was prepared by dissolving lipids in ethanol. The mRNA solution was prepared by dissolving the mRNA in citrate buffer. Then, these two solutions were mixed using a pump system. In some instances, the two solutions were mixed using a gear pump system. In certain embodiments, the two solutions were mixing using a ‘T’ junction (or “Y” junction). The mixture was then purified by diafiltration with a TFF process. The resultant formulation concentrated and stored at 2-8° C. until further use.
(§1) Lipid nanoparticle formulations of Table 1 were prepared by Process A. More specifically, an ethanolic solution of a mixture of lipids including DMG-PEG-2000, cationic lipid, cholesterol, and phosphatidylethanolamine (DOPE) in a ratio of 1.5:40:28.5:30 were combined with an aqueous buffered solution (1 mM Citrate and 150 mM NaCl) of target mRNA at an acidic pH (4.5) under controlled conditions to yield a dispersion of uniform lipid nanoparticles (LNPs). Upon ultrafiltration and diafiltration into the final buffer, the resulting nanoparticle dispersions were diluted to required concentration using the final buffer (10% Trehalose), sterile filtered and stored frozen at −80° C. until use.
All of the lipid nanoparticle formulations comprised hEPO mRNA and the different lipids in following mol % ratios: Cationic Lipid: DMG-PEG2000; Cholesterol:DOPE=40:1.5:28.5:30.
DLS measurements were performed using a Malvern Instruments Zetasizer with a backscattering detector angle of 173° and a 4-mW, 633-nm He—Ne laser (Worcestershire, UK). The samples were analyzed by diluting in 10% Trehalose and measuring the size and Poly dispersity Index (PDI) in an optical grade polystyrene cuvette.
The following lipid nanoparticles were formulated according to Example 51.
as §1, with “Table 3” for “Table 1”

[2] = RiboGreen assay, % encapsulation of mRNA in lipid nanoparticles; format: physicochemical; details: hEPO mRNA LNP, Cationic Lipid:DMG-PEG2000:Cholesterol:DOPE=40:1.5:28.5:30, N/P ratio 4, Process A
From the text: In embodiments, the lipid nanoparticle encapsulates a nucleic acid, optionally an mRNA encoding a peptide or protein. In embodiments, the peptide is an antigen. In embodiments, the lipid nanoparticle encapsulates an mRNA encoding a peptide or protein. As used herein, the phrase “encapsulation percentage” refers to the fraction of therapeutic agent (e.g. mRNA) that is effectively encapsulated within a liposomal-based vehicle (e.g. a lipid nanoparticle) relative to the initial fraction of therapeutic agent present in the lipid phase. In embodiments, the lipid nanoparticles have an encapsulation percentage for mRNA of at least 50%. In embodiments, the lipid nanoparticles have an encapsulation percentage for mRNA of at least 55%. In embodiments, the lipid nanoparticles have an encapsulation percentage for mRNA of at least 60%. In embodiments, the lipid nanoparticles have an encapsulation percentage for mRNA of at least 65%. In embodiments, the lipid nanoparticles have an encapsulation percentage for mRNA of at least 70%. In embodiments, the lipid nanoparticles have an encapsulation percentage for mRNA of at least 75%. In embodiments, the lipid nanoparticles have an encapsulation percentage for mRNA of at least 80%. In embodiments, the lipid nanoparticles have an encapsulation percentage for mRNA of at least 85%. In embodiments, the lipid nanoparticles have an encapsulation percentage for mRNA of at least 90%. In embodiments, the lipid nanoparticles have an encapsulation percentage for mRNA of at least 95%. In embodiments, the encapsulation percentage is calculated by performing the Ribogreen assay (Invitrogen) with and without the presence of 0.1% Triton-X 100.
The RiboGreen Assay is a fluorescence-based method for the determination of mRNA concentration (Total and Free) and % encapsulation using Quant-iT™ RiboGreen® RNA reagent in mRNA containing lipid nanoparticles.
• To each of the standards (Blank, mRNA-1, mRNA-2. mRNA-3, mRNA-4, mRNA-5) and Samples (free mRNA and total mRNA), add 1.0 mL of 200-fold Ribogreen Reagent Solution and gently mix by inversion. This is a 2× Dilution. • Add 200 μL of each standard and sample in triplicate using the reverse pipetting technique in a 96-well Costar Black with Clear Background Plate. Ensure no bubbles are present in the plate before the fluorescence reading. • Read the fluorescence signal using the below instrument parameters: • Read Type: Fluorescence, Bottom Read • Excitation: 485 nm; Cut-off: 515 nm; Emission: 530 nm • Plate Type: 96-well Costar Black with Clear Background
The average fluorescence from each calibration standard is plotted against the concentration to generate a linear calibration curve using the MS Excel software. The coefficient of determination (R^2) of calibration curve must be R^2>0.99.
[formula] • Where, • Y=average fluorescence value • m: slope • x: concentration (pg/mL) • c: y-intercept • Using the linear equation, calculate the concentration of free and total mRNA concentration in the test sample by replacing the y value in the equation with the average fluorescence value of each respective sample • Once the concentration is determined, the actual concentration in the sample can be back-calculated by multiplying the concentration in the test sample with the dilution factor (DF) as follows:
[formula] • Concentration of encapsulated mRNA can be determined by subtracting the concentration of free mRNA from the total mRNA. • % Encapsulation can then be calculated by taking the ratio of encapsulated mRNA over total mRNA and multiplying the result with 100.

[3] = system: Human erythropoietin (hEPO) levels in sera; test: Delivery of hEPO mRNA by intramuscular administration of lipid nanoparticles; serum hEPO by ELISA; format: in vivo, Mouse; details: for hEPO 6 Hr (ng/mL) Mean / hEPO 24 Hr (ng/mL) Mean: serum, 0.1 μg/animal hEPO mRNA LNP, n=4; for hEPO 6 Hr (ng/mL) Mean: 6 hours post dose; for in vivo hEPO protein production (FIG. 51): intramuscular delivery of hEPO mRNA using lipid nanoparticles comprising the compound, result in words; for hEPO 24 Hr (ng/mL) Mean: 24 hours post dose
Procedure: WO2022/099003 A1 describes an in vivo assay for intramuscular administration (e.g. on page 46, paragraph [00206]). Further details of the intramuscular experiment performed in this application are provided below.
Treatment Regimen: On Day 1, animals from Groups 1-8 were dosed via intramuscular injection while under light isoflurane anesthesia according to the study design table above. Animals in Groups 2-8 were injected with EPO in the right leg only. Group 1 animals received saline control.
Interim Sample Collections: Interim whole blood (~50 μL) was collected by tail snip or saphenous vein at 6 hours post dose administration (±5%). Blood samples were collected into serum separator tubes, allowed to clot at room temperature for at least 10 minutes, centrifuged at ambient temperature at minimum 1000 g for 10 minutes and the serum was extracted. All serum samples were stored at nominally −70° C. until analysis hEPO by the Testing Facility. The results of the EPO analysis were included in the Data Submission.
Terminal Blood Collections: Whole blood was collected via cardiac puncture into serum separator tube, allowed to clot at room temperature for at least 10 minutes, centrifuged at ambient temperature at minimum 1000 g for 10 minutes and the serum was extracted. Serum samples were stored at nominally −70° C. until analyzed for hEPO by the Test Facility.
ELISA Assay: Human erythropoietin (hEPO) levels in sera samples were determined by ELISA kit (R&D systems, Cat #DEP-00) according to the manufactory instruction and the results were included in the Data Submission. The “shaker” protocol was used. The serum samples were diluted between 1:40 and 1:100.
The ability of the further exemplary lipid nanoparticles in Example 54 to deliver hEPO mRNA by intramuscular administration was tested in accordance with the experimental protocol set out in Example 52.

[4] = single IM injection, female BALB/cJ mice

Row | SMILES | PDI ([1]; Table 3, further LNPs) | Size (nm) ([1]; Table 3, further LNPs) | Encapsulation Percentage (%) ([2]; Table 3, further LNPs) | hEPO 6 Hr (ng/mL) Mean ([3]; third occasion, IM, mice) [ng/mL] | hEPO 6 Hr (ng/mL) Mean ([3]; first occasion, IM, mice) [ng/mL] | PDI ([1]; Table 1) | Size (nm) ([1]; Table 1) | Encapsulation Percentage (%) ([2]; Table 1) | in vivo hEPO protein production (FIG. 51) [3] | hEPO 6 Hr (ng/mL) Mean [3, 4] [ng/mL] | hEPO 24 Hr (ng/mL) Mean [3, 4] [ng/mL]
1 | CCCCCCCCCCC(O)CN(CCCOC(=O)N[C@@H](Cc1ccccc1)C(=O)OCCCN(CC(O)CCCCCCCCCC)CC(O)CCCCCCCCCC)CC(O)CCCCCCCCCC (stereo partly drawn) [Compound XCVII, 3-(bis(2-hydroxydodecyl)amino)propyl ((3-(bis(2-hydroxydodecyl)amino)propoxy)carbonyl)-L-phenylalaninate] | 0.101 | 125 | 83 | 16.0 |  |  |  |  |  |  | 
2 | CCCCCCCCC(O)CN(CCCNC(=O)CC(C)(O)CC(=O)NCCCN(CC(O)CCCCCCCC)CC(O)CCCCCCCC)CC(O)CCCCCCCC (centres unmarked) [LXXXVIII] | 0.134 | 100 | 84 |  | 51.7 |  |  |  |  |  | 
3 | CCCCCCCCC(O)CN(CCCOC(=O)CN(C)CC(=O)OCCCN(CC(O)CCCCCCCC)CC(O)CCCCCCCC)CC(O)CCCCCCCC (centres unmarked) [XII] |  |  |  |  |  | 0.091 | 110 | 46 | high levels of in vivo hEPO protein production | 35.0 | 15.1
4 | CCCCCCCCCCC(O)CN(CCCCOC(=O)CN(C)CC(=O)OCCCCN(CC(O)CCCCCCCCCC)CC(O)CCCCCCCCCC)CC(O)CCCCCCCCCC (centres unmarked) [XIV] |  |  |  |  |  | 0.098 | 101 | 67 | high levels of in vivo hEPO protein production | 33.9 | 18.3
5 | CCCCCC/C=C\COC(=O)CCCCCC(O)CN(CCCOC(=O)CN(C)CC(=O)OCCCN(CC(O)CCCCCC(=O)OC/C=C\CCCCCC)CC(O)CCCCCC(=O)OC/C=C\CCCCCC)CC(O)CCCCCC(=O)OC/C=C\CCCCCC (centres unmarked) [XV] |  |  |  |  |  | 0.052 | 134 | 33 | high levels of in vivo hEPO protein production | 31.9 | 15.1
6 | CCCCCCCCCCC(O)CN(CCCOC(=O)CCC(C)C(=O)OCCCN(CC(O)CCCCCCCCCC)CC(O)CCCCCCCCCC)CC(O)CCCCCCCCCC (centres unmarked) [XXXII] |  |  |  |  |  | 0.124 | 106 | 78 | high levels of in vivo hEPO protein production | 17.0 | 10.3

From patent US20260216368A1, “BIS-ESTER AND AMIDE CATIONIC LIPIDS” (SANOFI PASTEUR INC., priority 2022, published 2026)
